Experiment [1] relates to osteocalcin mRNA in MC3T3-E1 subclone 4 cells. As to the kind of experiment: Osteocalcin mRNA levels (qPCR) in pre-osteoblastic cell line. The class given is cell-based. The following applies: 21 days of differentiation, without ascorbic acid; 3 μM menaquinone-7, 1 nM 1α,25-dihydroxyvitamin D3 or 100 nM all-trans-retinoic acid; FIG. 1B. From the text: (§1) The pre-osteoblastic cell line MC3T3-E1 subclone 4 (CRL-2593) was purchased from ATCC (Manassas; Virginia, USA). Cells were maintained in growth medium (GM) composed of ascorbic acid-free αMEM (ThermoFisher Scientific), supplemented with 10% fetal calf serum (FCS, ThermoFisher Scientific) and 1% penicillin/streptomycin. All culture media were refreshed every 2-3 days. Cells were passaged with trypsin/EDTA solution at less than 80% confluence. To induce differentiation into osteoblasts, cells were seeded at 5×10^4 cells/cm^2 and grown to confluency in GM for 24 h. Then, the medium was switched to differentiation medium (DM) composed of GM supplemented with 10 mM β-glycerophosphate and treatment solutions of interest. Ascorbic acid 50 μg/ml was also added to the DM depending on the experiment.
MC3T3-E1 subclone 4 cells were differentiated for 21 days (in DM without ascorbic acid except for the positive control) or 28 days (in DM containing ascorbic acid). Cells were then collected for gene expression analysis. […] RNA concentrations were measured using the DropSense96 (TRINEAN, Gentbrugge, Belgium).
cDNAs were synthetized using High-Capacity cDNA Reverse Transcription Kit (AppliedBiosystems; Waltham, Massachusetts, USA) according to the manufacturer's instructions. […] The relative gene expression was evaluated via the 2^-ΔCt method.
(In general: In qPCR the cycle at which signal appears reflects the starting amount.)

Experiment [2] relates to MC3T3-E1 subclone 4 cells. The experiment is described as follows: Osteoblast alkaline phosphatase (ALP) activity in pre-osteoblastic cell line. Format: cell-based. The conditions noted are these: 7 days of differentiation, without ascorbic acid; 3 μM menaquinone-7, 1 nM 1α,25-dihydroxyvitamin D3 or 100 nM all-trans-retinoic acid; FIG. 1A.
Description: as §1, with “experiment. […]” for “experiment.”
After 7 days of differentiation, cells were then collected for alkaline phosphatase (ALP) activity measurement as described previously with minor modifications. […] Enzymatic reaction was monitored at 405 nm after 4-Nitrophenyl phosphate disodium salt hexahydrate addition. Michaelis-Menten kinetics were evaluated at 30° C. for 30 min. […] The activity value was normalized by protein content measured via the Pierce BCA Protein Assay Kit (ThermoFisher Scientific) according to the manufacturer's instructions.

Consider `C=C1/C(=C\C=C2/CCC[C@]3(C)[C@@H]([C@H](C)CCCC(C)(C)O)CC[C@@H]23)C[C@@H](O)C[C@@H]1O` [vitamin D, 1α,25-Dihydroxyvitamin D3], for which the “effect on osteocalcin expression (mRNA)” value in experiment [1] is on record as “no significant effect”.
On to `CC(C)=CCC/C(C)=C/CC/C(C)=C/CC/C(C)=C/CC/C(C)=C/CC/C(C)=C/CC/C(C)=C/CC1=C(C)C(=O)c2ccccc2C1=O` [vitamin K2, menaquinone-7], for which, in experiment [2], the “effect on ALP activity (marker of osteoblast differentiation)” value is listed as “no significant effect”.
On to `CC1=C(/C=C/C(C)=C/C=C/C(C)=C/C(=O)O)C(C)(C)CCC1` [vitamin A, all-trans-retinoic acid], for which the “effect on osteocalcin expression (mRNA)” value in experiment [1] is listed as “no significant effect”.
